In brackets after ≈: the same amount, converted by molar mass.
What was measured:
[1] = system: retinoic acid response element (RARE); test: X-Gal RA based reporter assay (genomic activity); assay type: cell-based; settings: for Genomic Activity (X-Gal RA Based Reporter Assay) Efficacy (Emax) / EC50: Sil-15 reporter cells, overnight incubation; for EC50: read-out: Genomic Activity (X-Gal RA Based Reporter Assay) Potency (EC50); for Genomic activity and potency compared to retinoic acid (ATRA): X-Gal assay, versus ATRA
Protocol: The genomic activity of synthetic retinoids was evaluated by determining their efficiency of inducing transcription using the X-Gal Assay. The X-Gal Assay utilizes Sil-15 reporter cells in which the transcription of the LacZ gene is under control of a promoter linked to a retinoic acid response element (RARE). After treatment of the reporter cells with retinoids, the ability of the compounds to induce transcription can be attained by monitoring and quantifying the activity of β-galactosidase produced by the reporter cells.
Sil-15 cells were plated at 100,000 cells per well in 96-well plates coated in 0.1% gelatin. The following day, serial dilutions of retinoid ligands, prepared in Dulbecco's Modified Eagle's Medium (DMEM) containing 10% foetal calf serum (FCS) were added at concentrations from 10^−6 M to 10^−14 M and the plates were incubated overnight. All concentrations for the ATRA standard curve and the other retinoid ligands were tested in triplicate.
The next day, the assay plates were washed twice with phosphate buffered saline (PBS), fixed with 100 μl per well of 1% glutaraldehyde and 1 mM MgCl2 in PBS for 15 minutes and washed twice with PBS. β-galactosidase activity was detected by the addition of 100 μl of freshly-prepared 0.2% X-Gal in 1 mM MgCl2, 3.3 mM potassium ferricyanide and 3.3 mM potassium ferrocyanide in PBS per well. Plates were incubated for 6 hours at 37° C. in 5% CO2 and colour change was detected by reading the plates at 650 nm on an Emax Precision Microplate Reader (Molecular Devices).

ERK1/2 = ERK1/2 phosphorylation assay, AlphaLISA SureFire Ultra (non-genomic activity); assay type: cell-based; parameters: Non-genomic activity (ERK½ Phosphorylation Assay) Efficacy (Emax): unit not given here; settings: SH-SY5Y cells; for EC50: Homo sapiens, 0.5 h, read-out: Non-genomic activity (ERK½ Phosphorylation Assay) Potency (EC50); for EC50 / Non-genomic activity (ERK½ Phosphorylation Assay) Efficacy (Emax): serum-free, 30 minutes stimulation; for Erk 1/2 phosphorylation potency/efficacy compared to retinoic acid: versus retinoic acid
Protocol: The non-genomic activity of synthetic retinoids was evaluated by measuring their ability to induce phosphorylation of ERK1/2 using the AlphaLISA® SureFire® Ultra ERK1/2 kit.
In this assay, SH-SY5Y cells (100,000 cells/well) were plated in 96-well plates and serum-starved in DMEM for 24 hours. Retinoids were tested at concentrations from 10−5 M to 10−11 M and at a final concentration of 0.1% DMSO in the medium. The assay was carried out on the SH-SY5Y cells in serum-free DMEM, cells were stimulated by retinoid for 30 minutes at 37° C.
At the end of the assay, the medium was removed, and cells were lysed in 50 μl of freshly prepared 1× lysis buffer (supplied in the kit). The 96-well plate was agitated on an orbital shaker (SO1, Stuart Scientific) at approximately 350 rpm for 10 minutes at room temperature.
In the meantime, the activation buffer was diluted 25-fold in the reaction buffers. Under green light in a dark room, the acceptor beads were diluted 50-fold in the freshly prepared reaction mix while the donor beads were diluted 50-fold in dilution buffer to obtain two final reaction mixtures.
10 μl of cell lysate was then transferred per well into 384-well white Proxiplates plates (PerkinElmer) and 5 μl of each prepared acceptor and donor reaction mixture was added under green light in a dark room. Plates were wrapped with aluminium foil and incubated at room temperature for at least 3 hours. Readings were taken using an Envision system (PerkinElmer Life Sciences) using the AlphaScreen® settings.

SH-SY5Y cells = test: Induction of neurite outgrowth; assay type: cell-based; settings: 10 nM, 5 days; for fold induction at 0.01 µM: Homo sapiens, 120 h, read-out: Neurite Outgrowth Fold increase
Protocol: SY—SY5Y cells were plated at 10,000 cells/well in 12-well plates containing acid-treated/poly-L-lysine-coated coverslips. After 24 hours, each retinoid was added to the medium at a concentration of 10 nM and the plates were incubated for 5 days. After retinoid treatment, SH-SY5Y cells on coverslips were washed twice in PBS, fixed in 4% paraformaldehyde (PFA) for 20 minutes at room temperature, and washed twice with PBS.
For immunocytochemical staining of neurites, cells on coverslips were washed three times in PBS, and incubated in blocking solution (10% donkey serum and 0.1% triton X-100 in PBS) for 1 hour at room temperature. Cells were then labelled by incubation overnight at 4° C. with β-III tubulin primary antibody (Sigma-Aldrich) diluted 1:1000 in blocking buffer. Following incubation overnight, cells were washed three times with PBS containing 0.1% Triton X-100 solution (PBST) before incubation with anti-mouse monoclonal secondary antibody (1:300 in PBST; Jackson Immunoresearch) for 2 hours at room temperature. Finally, after three washes in PBST and a final wash in PBS, the coverslips were mounted on slides and stored at 4° C.
ImageJ software with the NeuronJ plugin was used to quantify neurite outgrowth on stained cells. For each experiment, 10 different randomly selected images were taken from each cover slip using a Nikon Eclipse E400 fluorescence microscope. Each image was converted into an 8-bit image (necessary for the NeuronJ plugin) and optimised with the brightness and contrast tool in GIMP (GNU Image Manipulation Program). For each image, individual traces were drawn for each clearly-identifiable neurite using the tracing tool in the NeuronJ plugin. Neurite length was measured in pixels and transformed into the corresponding length in μm depending on the magnification used. The average neurite length for each image was calculated by dividing total neurite length by the total number of neurites per image. Ten images per cover slip were measured and the mean calculated for the coverslip overall. Coverslips were in triplicate for each retinoid and concentration.

[2] = Turbidimetric aqueous solubility; assay type: physicochemical; settings: aqueous buffer, kinetic from dmso stock, 0.01 M phosphate buffered saline pH 7.4, 1% DMSO, 37° C.
Protocol: Test compound (10 mM in DMSO) is serially diluted to give solutions of 0.1, 0.3, 1 and 3 mM in DMSO. Each test compound concentration is then further diluted 1 in 100 in buffer (0.01 M phosphate buffered saline pH 7.4) so that the final DMSO concentration was 1% and the final test compound concentrations were 1, 3, 10, 30 and 100 μM. The experiment was performed at 37° C. and each concentration sample was incubated in 7 replicate wells. The plates were incubated for 2 hr at 37° C. before the absorbance was measured at 620 nm. The solubility of the sample was estimated from the concentration of test compound that produced an increase in absorbance above vehicle control (i.e., 1% DMSO in buffer).

EC50 [1] | EC50 (ERK1/2) | solubility at 2 h [2] | SMILES | Genomic Activity (X-Gal RA Based Reporter Assay) Efficacy (Emax) [1] | Non-genomic activity (ERK½ Phosphorylation Assay) Efficacy (Emax) (ERK1/2) | fold induction at 0.01 µM (SH-SY5Y cells) | Genomic activity and potency compared to retinoic acid (ATRA) [1] | Erk 1/2 phosphorylation potency/efficacy compared to retinoic acid (ERK1/2) | Average neurite length compared to cells treated with ATRA (SH-SY5Y cells)
0.382 nM | 6.35 nM | – | CC1(C)CCC(C)(C)c2nc(C#Cc3ccc(C(=O)O)cc3F)cnc21 [DC712] | 179.7 | 94 | 1.2 | – | – | –
0.146 nM | 3.5 nM | – | COc1cc2c(cc1C#Cc1cc(F)c(C(=O)O)c(F)c1)C(C)(C)CCC2(C)C [DC657] | 154.9 | 72.45 | 1.4 | – | – | –
0.427 nM | 502 nM | – | Cc1cc2c(cc1C#Cc1ccc(C(=O)O)cn1)C(C)(C)CCC2(C)C [DC656] | 177.2 | 56.77 | 1.6 | – | – | –
603 nM | 90.8 nM | – | COc1cc2c(cc1C#Cc1ncc(C(=O)O)cn1)C(C)(C)CCC2(C)C [DC706] | 265.9 | 36.87 | 1.3 | – | – | –
0.015 nM | 159 nM | – | CC1(C)CCC(C)(C)c2cc(C#Cc3cc(F)c(C(=O)O)c(F)c3)ccc21 [DC540] | 185.3 | 79.73 | 1.7 | increased genomic activity and potency | higher potency and efficacy | –
0.21 nM | 2.49 nM | – | CC1(C)CCC(C)(C)c2cc(C#Cc3ccc(C(=O)O)c(F)c3)ccc21 [DC525] | 190 | 42.44 | 1.9 | increased genomic activity and potency | higher potency | significantly larger average neurite length
13.6 nM | 18.1 nM | – | CC1(C)CCC(C)(C)c2cc(C#Cc3ccc(C(=O)O)cc3Cl)ccc21 [DC567] | 97.21 | 44.46 | 1.6 | – | – | –
3.16 nM | 144 nM | – | COc1cc2c(cc1C#Cc1ccc(C(=O)O)cn1)C(C)(C)CCC2(C)C [DC646] | 176.3 | 77.63 | 1.7 | – | – | –
0.826 nM | 4.32 nM | – | Cc1cc2c(cc1C#Cc1ncc(C(=O)O)cn1)C(C)(C)CCC2(C)C [DC707] | 192.2 | 44.87 | 1.2 | – | – | –
0.134 nM | 4.85 nM | – | Cc1cc2c(cc1C#Cc1ccc(C(=O)O)c(F)c1)C(C)(C)CCC2(C)C [DC667] | 169.8 | 44.3 | 1.4 | – | – | –
1.04 nM | 33.1 nM | – | CC1=C(/C=C/C(C)=C/C=C/C(C)=C/C(=O)O)C(C)(C)CCC1 [ATRA, All-trans-retinoic acid, reference compound] | 170.1 | 48.55 | 1.4 | – | – | –
5.31 nM | 18.1 nM | – | COc1cc2c(cc1C#Cc1ccc(C(=O)O)cc1F)C(C)(C)CCC2(C)C [DC564] | 177.1 | 44.46 | 1.3 | – | – | –
0.128 nM | 31.8 nM | 6.5 µM (≈ 2.16 µg/mL) | CC1(C)CCC(C)(C)c2cc(C#Cc3ccc(C(=O)O)cc3)ccc21 [EC23, reference compound] | 169.18 | 91.93 | 2.2 | – | – | –
1.38 nM | 15.7 nM | – | Cc1cc2c(cc1C#Cc1ccc(C(=O)O)cc1F)C(C)(C)CCC2(C)C [DC559] | 139.8 | 40.68 | 1.4 | – | – | –
0.00347 nM | 30.6 nM | – | CC1(C)CCC(C)(C)c2cc(C#Cc3ccc(C(=O)O)cn3)ccc21 [DC527] | 209.8 | 92.51 | 1.9 | increased genomic activity and potency | higher potency and efficacy | significantly larger average neurite length
3.89 nM | 30.4 nM | – | CC1(C)CCC(C)(C)c2cc(C#Cc3cnc(C(=O)O)cn3)ccc21 [DC529] | 174 | 28.85 | 1.3 | – | – | –

From patent US12344587B2, “Synthetic retinoids for use in RAR activation” (UNIVERSITY OF DURHAM, priority 2019, dated 2025)
